Read-outs that look alike come from different tables or passages of the source.

The target in data set [1] is T1, ERK2[2-360(p-T185/p-Y187)]-Avi (Homo sapiens, UniProt P28482).
T1 construct: 400 pM ERK2[2-360(p-T185/p-Y187)]-Avi was added to the plate
Nature of the data set: Biochemical assay (HTRF competition assay). Format: binding. The note with it: HTRF competition with Example 15 probe, overnight at RT; read-out: Biochemical qualified AC50. As for the experimental part:
The competition assays were performed at RT in a 384-well white polystyrene, flat bottom plate (Greiner #784075) using a final reaction volume of 15 μL and the following assay buffer conditions: 50 mM MOPS, pH 7.2, 10 mM MgCl2, 0.5 mM TCEP, 0.01% Triton-X-100. 75 nL of a 10 mM compound solution in DMSO or 100% DMSO (12 point titration, final concentration: 50 μM-300 pM; final DMSO: 0.5%) was added using an acoustic liquid handler (Echo, Beckman Coulter) to wells containing 7.5 μL of 1-(6-((R)-3-(1-(5-chloro-1-((tetrahydro-2H-pyran-4-yl)methyl)-1H-indole-3-carbonyl)-4-(4-fluorophenyl)piperidine-4-carboxamido)pyrrolidin-1-yl)-6-oxohexyl)-3,3-dimethyl-5-sulfo-2-((1E,3E)-5-((E)-1,3,3-trimethyl-5-sulfoindolin-2-ylidene)penta-1,3-dien-1-yl)-3H-indol-1-ium (Example 15); 7.5 μL 400 pM SA-Tb (Cisbio, 610SATLB) and 400 pM ERK2[2-360(p-T185/p-Y187)]-Avi was added to the plate and incubated overnight at RT. HTRF signal was measured using a microplate reader (PheraStar, BMG Labtech) with excitation and emission wavelengths of […], respectively. The inhibitor dose-response curves were analyzed from the HTRF ratio signal using normalized IC50 regression curve fitting with control-based normalization.
Background: In TR-FRET formats the signal depends on donor and acceptor labels being close together.

Data set [2] has as its target T2, nanobit-large-bit-ERK2 and nanobit-small-bit-PEA15 in WM793 cells (Homo sapiens, UniProt P28482).
T2 construct: expressed in transfected cells
The experiment in a line: NanoBiT assay. The class given is cell-based. Particulars: WM793 nanobit stable cell line, overnight incubation; read-out: NanoBiT qualified absolute AC50. As for the experimental part: (§1) Cancer cell media was prepared by adding 500 mL of RPMI (ThermoFisher cat ##22400-089) and 10% Fetal Bovine Serum (Gibco) for WM793 cells (ATCC Cat #CRL-2806, RRID: CVCL 8787) and F12K (Thermo Fisher cat #21127-022, 500 mL; or 21127-030, 10×500 mL)+10% FBS for PC3 (ATCC CRL-1435) cells. The entire media with supplements was filter sterilized through a 0.4 μm bottle top filter system. Cancer cell lines were detached from traditional cell culture flasks by washing three times with 1×PBS and adding an appropriate amount of 0.25% TrypLE™ Express Enzyme (1×), no phenol red (ThermoFisher cat #12604013) to create a thin layer over the cells. Trypsin was neutralized with media containing serum and proceeded to count the cells.
A nanobit stable cell line was generated using WM793 cells with nanobit-large-bit-ERK2 and nanobit-small-bit-PEA15. […] In a biological safety cabinet, cells were seeded using a sterilized small stainless steel tipped cassette on a Multi-drop Combi. Between different cell lines, the tubing of the cassette was flushed with 1× sterile PBS for 10 s. Alternatively, cells can be seeded using a Multi-flow located within a Hepa filtered robotics room using either a sterilized small sapphire jewel tipped cassette and the peristatic pump, or the attached syringe pump, depending on volume of plates per cell line needed. The plates were placed in an incubator set at 37° C., with 5% CO2 and 95% relative humidity. A 10-point, 3-fold serial dilution of compounds was prepared in 100% DMSO on a liquid handling robot with a 10 mM top concentration. 90 nl/well was dispensed in three assay plates/1 compound source plate, with the highest concentration at 30 μM. After addition of compound was complete, the plates were placed into an incubator at 37° C., with 5% CO2 and 95% relative humidity for overnight. Luminescence was captured on a plate luminometer such as an Envision or View Lux to measure Day 0 time point both select cell lines. LUM plus, gain 3500, 0.1 s and focal height 12.5 [mm] on PheraStar reader. The raw data was extracted from the instrument and normalized all fields containing test compounds to the average of all wells containing DMSO alone as neutral control. From this value, the percent growth inhibition was calculated for each compound. Dose response curves and inhibitory IC50s were generated by graphing the normalized data values against the compound concentration using either a program such as GraphPad™ or Excel Fit.

The next data set concerns WM793 cells. The experiment in a line: Cell proliferation assay (CellTiter-Glo). Format: cell-based. Particulars: 3 d, read-out: Cell proliferation qualified AC50. As for the experimental part:
as §1
After counting the cells, the concentration of the cell solution was adjusted to seed a total of 750 cells per well in 50 μL of complete media into 384-well tissue culture treated plates. In a biological safety cabinet, cells were seeded using a sterilized small stainless steel tipped cassette on a Multi-drop Combi. Between different cell lines, the tubing of the cassette was flushed with 1× sterile PBS for 10 seconds. Alternatively, cells can be seeded using a Multi-flow located within a Hepa filtered robotics room using either a sterilized small sapphire jewel tipped cassette and the peristatic pump, or the attached syringe pump, depending on volume of plates per cell line needed. The plates were placed in an incubator set at 37° C., with 5% CO2 and 95% relative humidity. A 10-point, 3-fold serial dilutions of compounds in 100% DMSO was prepared on a liquid handling robot with a 10 mM top concentration. 100 nL/well in three assay plates/1 compound was dispensed to source plate, with the highest concentration at 20 μM. After addition of compound was complete, plates were placed into an incubator at 37° C., with 5% CO2 and 95% relative humidity for 3 d. An adequate volume of CellTiter-Glo® (Promega #G7571) detection reagent was pre-warmed to RT or in a 37° C. H2O bath. 25 μL of the reagent was added to each well using either a Multi-drop Combi or MultiFlo and incubate at RT for at least 15 min. Luminesce was captured on a plate luminometer such as an Envision or View Lux to measure Day 0 time point both select cell lines. LUM plus, gain 3500, 0.1 s and focal height 12.5 mm on PheraStar reader. At Day 3, an adequate volume of CellTiter-Glo® detection reagent was pre-warmed at RT or in a 37° C. H2O bath. A total of 25 μL of the reagent was added to each well using either a Multi-drop Combi or MultiFlo and incubate at RT for at least 15 min. Luminesce was captured on a plate luminometer such as an Envision or View Lux to measure Day 3 time point both select cell lines. LUM plus, gain 3500, 0.1 s and focal height 12.5 mm on PheraStar reader. Raw data was extracted from the instrument and all fields containing test compounds were normalized to the average of all wells containing DMSO alone from Day 3 as neutral control and Day 0 starting numbers. From this value, percent growth inhibition of each compound was calculated. Dose response curves and growth inhibitory IC50s were generated by graphing the normalized data values against the compound concentration using a program such as GraphPad™ or Excel Fit.
Background: In ATP-based viability assays light output follows the ATP content of the culture.

The subject of data set [3] is WM793 BRAFV600E tumor xenograft. Nature of the data set: Anti-tumor activity and tolerability in WM793 BRAFV600E tumor xenograft in nude rats. Particulars: per os. Format: in vivo. As for the experimental part: Female RNU rats (Charles River, 4-5 weeks of age) were acclimatized into animal facility and pretreated with 100 mg/kg cyclophosphamide IP at 10 ml/kg 24 hrs prior to tumor implant. Nude rats were subcutaneously implanted on the right side with WM793 BRAF^V600E tumors via fragments (20-40 mg) from a previously passaged tumor with sterile techniques under isoflurane anesthesia using a 10 gauge trocar (n=4/group). Body weights were monitored at least once a week and calculated as (BWcurrent−BWinitial)/(BWinitial)×100%. After 1-3 weeks when palpable tumors developed, tumor volumes were monitored at least once a week by caliper measurements. Tumor volumes (mm^3) were calculated as (length×width×width)/2. Rats were randomized and selected for study based on tumor sizes (100-200 mm^3) and appropriate health conditions. Compounds of Formula I, formulated in either 20% HPBCD at 5 mg/ml or 20% HPBCD at 2.5 mg/ml were dosed at 10 ml/kg per os. Animals were euthanized based on poor health conditions, tumor volumes exceeded 2500 mm^3, or have reached the end of study. Regression % was calculated by 100×ΔT/Tinitial if ΔT<0, in which ΔT is the change of tumor volume.

T1 sequence (P28482 2-360 limits assumed): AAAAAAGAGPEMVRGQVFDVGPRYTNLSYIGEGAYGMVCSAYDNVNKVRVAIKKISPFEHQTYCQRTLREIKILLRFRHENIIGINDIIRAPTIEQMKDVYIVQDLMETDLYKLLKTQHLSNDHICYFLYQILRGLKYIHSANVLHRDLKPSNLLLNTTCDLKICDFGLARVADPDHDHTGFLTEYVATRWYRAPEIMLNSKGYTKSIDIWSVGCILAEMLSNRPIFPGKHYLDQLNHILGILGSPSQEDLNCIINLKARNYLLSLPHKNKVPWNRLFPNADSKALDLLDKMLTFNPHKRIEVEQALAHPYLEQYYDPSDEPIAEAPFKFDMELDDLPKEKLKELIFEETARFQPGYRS
T2 sequence (P28482 whole entry): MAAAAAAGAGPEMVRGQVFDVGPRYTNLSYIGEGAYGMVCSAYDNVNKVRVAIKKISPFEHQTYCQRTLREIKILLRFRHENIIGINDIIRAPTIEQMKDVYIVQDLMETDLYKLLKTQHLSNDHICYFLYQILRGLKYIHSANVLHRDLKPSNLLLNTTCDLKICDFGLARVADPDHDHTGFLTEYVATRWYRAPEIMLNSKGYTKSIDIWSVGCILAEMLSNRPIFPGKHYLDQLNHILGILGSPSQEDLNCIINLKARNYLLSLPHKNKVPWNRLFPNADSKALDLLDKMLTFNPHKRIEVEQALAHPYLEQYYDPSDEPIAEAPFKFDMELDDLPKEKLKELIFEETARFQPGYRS

Consider `CC(C)OC1CCC(C2CN(C(=O)N3CC[C@@](C(=O)N[C@H]4CC[C@H](C(=O)O)C[C@@H]4C)(c4ccc(F)cc4)C[C@@H]3C)c3cc(F)ccc32)CC1` (stereo partly drawn) [Example 4, (1S,3S,4S)-4-((2S,4S)-1-(6-fluoro-3-((1R,4S)-4-isopropoxycyclohexyl)indoline-1-carbonyl)-4-(4-fluorphenyl)-2-methylpiperidine-4-carboxamido)-3-methylcyclohexane-1-carboxylic acid], for which the values for the AC50 (in data set [1]; in data set [2]; in the data set with WM793 cells) were 0.47 nM, 20 nM and 3 nM, respectively. In addition, the “Percent body weight change following first dose / tolerability” value in data set [3] was “well tolerated”. Further, the “anti-tumor activity (tumor volume)” value in data set [3] (22 days, dose not given) is reported as “regression”.

As to `CCc1c(C[C@H]2CC[C@H](OC3CCOCC3)CC2)c2ccc(F)cc2n1C(=O)N1CCC(C(=O)N[C@H]2CC[C@H](C(=O)O)C[C@@H]2C)(c2ccc(F)cc2)CC1` [Example 5, (1S,3S,4S)-4-(1-(2-ethyl-6-fluoro-3-(((1r,4S)-4-((tetrahydro-2H-pyran-4-yl)oxy)cyclohexyl)methyl)-1H-indole-1-carbonyl)-4-(4-fluorophenyl)piperidine-4-carboxamido)-3-methylcyclohexane-1-carboxylic acid], the AC50 worked out at 0.7 nM in data set [1]; 66 nM in data set [2]; 24 nM with WM793 cells (Homo sapiens, WM793, 72 h). Besides, in data set [3], the “Percent body weight change following first dose / tolerability” value is listed as “well tolerated”. The “anti-tumor activity (tumor volume) with holiday break” value in data set [3] (50 mg/kg bid for 5 days with 2 day break) is given as “tumor regression, which is maintained”. The “anti-tumor activity (tumor volume)” value in data set [3] (50 mg/kg bid for 22 days) is listed as “tumor regression”.

`CCO[C@H]1CC[C@H](Cc2c(C)n(C(=O)N3CCC(C(=O)N[C@H]4CC[C@H](C(=O)O)C[C@@H]4C)(c4ccc(F)cc4)CC3)c3cc(F)ccc23)CC1` [Example 7, (1S,3S,4S)-4-(1-(3-(((1r,4S)-4-ethoxycyclohexyl)methyl)-6-fluoro-2-methyl-1H-indole-1-carbonyl)-4-(4-fluorophenyl)piperidine-4-carboxamido)-3-methyl cyclohexane-1-carboxylic acid]: the AC50 amounted to 0.33 nM in data set [1]; 80 nM in data set [2]; 96 nM with WM793 cells (Homo sapiens, WM793, 72 h).

On to `Cc1c(C[C@H]2CC[C@H](OC3CCOCC3)CC2)c2ccc(F)cc2n1C(=O)N1CC[C@@](C(=O)N[C@H]2CC[C@H](C(=O)O)C[C@@H]2C)(c2ccc(F)cc2)C[C@@H]1C` [Example 9, (1S,3S,4S)-4-((2S,4S)-1-(6-fluoro-2-methyl-3-(((1r,4S)-4-((tetrahydro-2H-pyran-4-yl)oxy)cyclohexyl)methyl)-1H-indole-1-carbonyl)-4-(4-fluorophenyl)-2-methylpiperidine-4-carboxamido)-3-methylcyclohexane-1-carboxylic acid], for which the AC50 in data set [1] was determined as 0.44 nM; in data set [2] it was 26 nM; in the data set on WM793 cells (Homo sapiens, WM793, 72 h), 5.9 nM.

`CN1CC[C@@H](NC(=O)C2(c3ccc(F)cc3)CCN(C(=O)c3cn(CC4CCOCC4)c4ccc(Br)cc34)CC2)C1` [Example 11, (R)-1-(5-bromo-1-((tetrahydro-2H-pyran-4-yl)methyl)-1H-indole-3-carbonyl)-4-(4-fluorophenyl)-N-(1-methylpyrrolidin-3-yl)piperidine-4-carboxamide]: the AC50 in data set [1] came out at 18 nM; in data set [2], 4900 nM; in the data set on WM793 cells (Homo sapiens, WM793, 72 h) it was 2700 nM.

Turning to `CN1CC[C@@H](NC(=O)C2(c3ccc(Cl)cc3)CCN(C(=O)c3c(C=O)n(CC4CCOCC4)c4ccc(Cl)cc34)CC2)C1` [Example 11b], the AC50 in data set [1] is 0.65 nM; in data set [2] it was 560 nM; in the data set with WM793 cells (Homo sapiens, WM793, 72 h), 220 nM.

Take `CC(C)O[C@H]1CC[C@H](Cn2c(C=O)c(C(=O)N3CCC(C(=O)N[C@H]4CC[C@H](C(=O)O)C[C@@H]4C)(c4ccc(F)cc4)CC3)c3cc(Cl)cnc32)CC1` [Example 11g]: the AC50 in data set [1] came out at 0.36 nM; in data set [2], 270 nM; with WM793 cells (Homo sapiens, WM793, 72 h), 610 nM.

On to `CC(C)O[C@H]1CC[C@H](Cn2c(C=O)c(C(=O)N3CCC(C(=O)N[C@H]4CC[C@H](C(=O)O)C[C@@H]4C)(c4ccc(F)cc4)CC3)c3cc(Cl)ccc32)CC1` [Example 11h], for which the AC50 was less than 0.28 nM in data set [1]; 54 nM in data set [2]; 120 nM in the data set with WM793 cells (Homo sapiens, WM793, 72 h).

Regarding `Cc1c(C(=O)N2CCC(C(=O)N[C@H]3CN(C)C[C@H]3F)(c3ccc(F)cc3)CC2)c2cc(Cl)ccc2n1CC1CCOCC1` [Example 12, 1-(5-chloro-2-methyl-1-((tetrahydro-2H-pyran-4-yl)methyl)-1H-indole-3-carbonyl)-N-((3S,4R)-4-fluoro-1-methylpyrrolidin-3-yl)-4-(4-fluorophenyl)piperidine-4-carboxamide], the AC50 was found to be 1.3 nM in data set [1]; 350 nM in data set [2]; 270 nM with WM793 cells (Homo sapiens, WM793, 72 h).
